Publication PMC6479639, “Structure-Based Virtual Screening and In Vitro Evaluation of New Trypanosoma cruzi Cruzain Inhibitors” (International Journal of Molecular Sciences, 2019)

How the values were obtained:
epimastigote = system: epimastigote; set-up: method as in PMID 20961766; settings: read-out: IC50 replication of the epimastigote; cited from earlier work
[1] = system: T. cruzi INC-5 bloodstream trypomastigotes; test: microbe, parasite or virus in culture; settings: Trypanosoma cruzi, 24 h, read-out: LC50 Bloodstream Trypomastigotes T. cruzi INC-5
From the text: (§1) For biological evaluation, the compounds Z2 (ZINC9873043), Z3 (ZINC9870651), Z5 (ZINC9715287), and Z6 (ZINC9861447) were selected and purchased from Molport https://www.molport.com (accessed on: 03 March 2018). For evaluation of trypanocidal activity of the selected compounds, two strains (NINOA and INC-5) in the epimastigote or trypomastigote stage of T. cruzi were used. Each strain was used to infect CD-1 mice (18–20 g) intraperitoneally with a concentration of 1 × 10^6 trypomastigotes/mL of blood. In the maximum peak of parasitemia, blood was obtained by cardiac puncture using heparin as an anticoagulant. The parasite concentration was then adjusted with isotonic saline (0.85% NaCl), and 90 μL of blood was used to achieve a concentration of 1 × 10^6 trypomastigotes/mL of blood. A 10 μL sample of each compound was evaluated in 96-well plates. The treatments performed consisted of a negative control, which contained dimethylsulfoxide (DMSO 2.5%) and the four compounds selected from virtual screening. […] Once the selected compounds were added after being homogenized with blood, the plates were incubated at 4 °C for 24 h. Once the incubation time had elapsed, the plates were kept at room temperature for 30 min, and then an aliquot of 5 μL was taken from each well, a fresh preparation was made, and the viable trypomastigotes were counted using the Pizzi method. A calculation of the number of viable trypomastigotes per mL of blood was carried out, and the survival percentages were obtained taking 100% of the negative control. Each test was done in triplicate. […] The LC50 values were determined using Probit statistical analysis of the dose-response, and the results were expressed as the mean of the standard deviation. The results were later converted to micromolar units.

[2] = system: T. cruzi INC-5 epimastigotes; test: microbe, parasite or virus in culture; settings: for CC50: Trypanosoma cruzi, read-out: LC50 Epimastigotes T. cruzi INC-5
From the text: as §1

[3] = activity previously reported for the compound; cited from earlier work
[4] = molecular target: cysteine proteases from epimastigotes of Trypanosoma cruzi strain INC-5; test: Enzyme inhibition, protease extract, substrate Z-Phe-Arg-MCA; type: biochemical; settings: protein extract of INC-5 epimastigotes, Z-Phe-Arg-MCA 5 µM, compounds 6.25–200 µM, pH 6.5
Description: T. cruzi epimastigotes of the INC-5 strain were used to obtain a protein extract quantified by the Bradford method. Evaluation of the activity was carried out using the synthetic fluorogenic peptide Z-Phe-Arg-MCA as a substrate at 5 µM, with 1 μg of the enzyme extract and the corresponding compounds (Z2, Z3, Z5, and Z6) at different concentrations (6.25–200 µM) using a reaction buffer (50 mM Na2HPO4, 100 mM NaCl, 5 mM EDTA, 2.5 mM dithiothreitol; pH 6.5) at room temperature. As a negative control of enzyme inhibition, the substrate without compounds was evaluated with 2% DMSO (concentration corresponding to the highest dilution of the compounds). Hydrolysis of the substrate was monitored in a continuous assay for 1 h in the Spectramax M5 spectrofluorometer (Molecular Devices) at 380 nm excitation and 440 nm emission. The mean of fluorescence changes was normalized taking the control (without inhibitor) as 100%. The IC50 values were determined from semilog concentration-response plots using the nonlinear curve-fitting method.

[5] = system: T. cruzi NINOA bloodstream trypomastigotes; test: microbe, parasite or virus in culture; settings: Trypanosoma cruzi, 24 h, read-out: LC50 Bloodstream Trypomastigotes T. cruzi NINOA
From the text: as §1

[6] = system: trypomastigotes of T. cruzi of the Tulahúen strain in mouse fibroblasts (L929); set-up: method as in Ferreira et al. (2010) and Pinto et al. (2017); settings: infected L929 fibroblasts, ref Ferreira et al. (2010) and Pinto et al. (2017); cited from earlier work

| Structure (SMILES) | IC50 (epimastigote) [µM] | CC50 [1] [µM] | CC50 [2] [µM] | Activity Reported [3] | IC50 [4] [µM] | CC50 [5] [µM] | IC50 [6] [µM] | LC50 Epimastigotes T. cruzi INC-5 ([2]; half maximal lytic concentration, epimastigotes, INC-5 strain) |
| --- | --- | --- | --- | --- | --- | --- | --- | --- |
| O=C(Cn1ccnc1[N+](=O)[O-])NCc1ccccc1 [Bzn, benznidazole, reference compound] | 1.8 | 225 ± 26.5 | 9.64 ± 4.2 | – | – | – | – | – |
| Cc1nnc(SCC(=O)N2N=C(c3ccc4ccccc4c3)C[C@@H]2c2ccccc2)n(N)c1=O [Z5] | – | 185 ± 8.5 | 36.3 ± 9.9 | Amine oxidase inhibitor | 56.2 | 166 ± 14.5 | – | – |
| Clc1ccc2[nH]c3c(NCCCN4CCOCC4)ncnc3c2c1 [S1, 8-chloro-N-(3-morpholinopropyl)-5H-pyrimido[5,4-b]-indol-4-amine, reference compound] | – | > 250 | > 250 | – | > 200 | – | 2.5 | did not show an effect |
| C[C@@H](Sc1nnc(C2CCCCC2)o1)C(=O)N1N=C(c2ccc(Cl)cc2)C[C@@H]1c1ccco1 [Z10] | – | – | – | Amine oxidase inhibitor | – | – | – | – |
| CN1N=C(C(=O)N2CCc3c(c(C(=O)N4CCOCC4)nn3CCCc3ccccc3)C2)CCC1=O [Z8] | – | – | – | Inhibitor of cathepsin S | – | – | – | – |
| COc1ccc([C@H]2CC(c3ccc4ccccc4c3)=NN2C(=O)Cn2cnc3ccsc3c2=O)cc1 [Z4] | – | – | – | Amine oxidase inhibitor | – | – | – | – |
| Cc1ccc(C2=NN(C(=O)CN3C(=O)N[C@](C)(c4ccc(F)c(F)c4)C3=O)[C@H](c3ccco3)C2)cc1 [Z6] | – | > 250 | > 250 | Amine oxidase inhibitor | 50.4 | > 250 | – | – |
| C[C@H](/C=C/C(=O)C=O)NC(=O)[C@@H](Cc1ccccc1)NC(=O)OCc1ccccc1 [compound 186, reference compound] | – | – | – | Cz inhibitor | – | – | – | – |
| Cc1ccc(NC(=O)CCC(=O)N2CCC(c3ccccc3)=N2)cc1S(=O)(=O)N1CCCCC1 [Z2] | – | > 250 | 239 ± 9.3 | Inhibitor of cannabinoid receptor type 2 | > 200 | > 250 | – | – |
| O=C(CCC(=O)N1CCC(c2ccccc2)=N1)N1CCN(S(=O)(=O)c2ccc3c(c2)CCC3)CC1 [Z7] | – | – | – | Inhibitor of aldo keto reductases | – | – | – | – |
| C[C@H]1CCc2sc(-c3nnc(SCC(=O)N4N=C(c5ccco5)C[C@@H]4c4ccco4)o3)cc2C1 [Z3] | – | > 250 | > 250 | – | 84.4 | > 250 | – | – |
